{"source": "paper PMC2680961", "about": "“Homologous desensitization of signalling by the alpha (α) isoform of the human thromboxane A2 receptor: A specific role for nitric oxide signalling” (Biochimica et Biophysica Acta, 2007)", "key": {"[1]": {"target": "T1, TPα^S329A (Homo sapiens, UniProt P21731, S329A)", "T1 construct": "expressed in transfected cells", "T1 sequence (P21731 1-343 S329A)": "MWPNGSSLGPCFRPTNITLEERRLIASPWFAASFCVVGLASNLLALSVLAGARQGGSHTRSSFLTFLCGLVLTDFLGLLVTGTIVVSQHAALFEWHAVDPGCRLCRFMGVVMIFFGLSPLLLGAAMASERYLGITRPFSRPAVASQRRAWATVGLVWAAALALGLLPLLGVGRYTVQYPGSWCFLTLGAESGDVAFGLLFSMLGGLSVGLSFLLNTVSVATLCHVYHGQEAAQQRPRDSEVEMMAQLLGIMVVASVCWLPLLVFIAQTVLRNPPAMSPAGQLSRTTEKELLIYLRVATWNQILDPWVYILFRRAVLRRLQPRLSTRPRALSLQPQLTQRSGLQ", "assay": "Intracellular calcium mobilization, HEK.TPα^S329A cells", "type": "cell-based", "protocol": "(§1) Measurement of intracellular calcium mobilization ([Ca^2+]i) in FURA2/AM preloaded HEK 293 cell lines (2 × 10^6 cells/dish), each transiently co-transfected with pADVA (10 μg), and pCMV:Gαq (25 μg), was carried out as previously described. To investigate the effect of GRK2/βARK1 on TP-mediated [Ca^2+]i mobilization, HEK.TPα or HEK.TPβ cells (2 × 10^6 cells/dish) were co-transfected with pADVA (10 μg), pCMV:Gαq (25 μg) along with pRK5:βARK1^495–689 (25 μg), encoding a dominant negative form of GRK2/βARK1[39]. […] For each measurement of [Ca^2+]i mobilization, aliquots of cells were diluted to 0.825 × 10^6 cells/ml in HBSSHB, 1 mM CaCl2 and FURA2 fluorescence was recorded (2 ml aliquots of cells) at 37^ °C with gentle stirring with a Perkin Elmer-Cetus LS50-B spectrofluorometer at excitation wavelengths of 340 nm and 380 nm and emission wavelength of 510 nm, respectively.\n(§2) Cells were stimulated with the TP agonist U46619 (1 μM) and changes in [Ca^2+]i mobilization were monitored as a function of time. […]\n(§3) The vehicle had no effect on U46619-mediated [Ca^2+]i mobilization. Calibration of the signal was performed in each sample by adding 0.2% Triton X-100 to obtain the maximal fluorescence ratio (Rmax) and then 1 mM EGTA to obtain the minimal fluorescence ratio (Rmin). […]"}, "[2]": {"target": "T2, TPα^T337A (Homo sapiens, UniProt P21731, T337A)", "T2 construct": "expressed in transfected cells", "T2 sequence (P21731 1-343 T337A)": "T1 sequence (P21731 1-343 S329A) with A329S, T337A", "assay": "Intracellular calcium mobilization, HEK.TPα^T337A cells", "type": "cell-based", "details": "for Δ[Ca2+]i, U46619-induced: HEK.TPα^T337A", "protocol": "as §1, with “GRK2/βARK1[39]. Approximately 48 h post-transfection, cells were harvested by scraping, washed twice in ice-cold PBS and resuspended in HBSSHB (modified Ca^2+/Mg^2+-free Hank's buffered salt solution, containing […], pH 7.67, 0.1% bovine serum albumin (BSA)) buffer at 10^7 cells/ml and incubated in the dark with 5 μM FURA2/AM for 45 min at 37 °C.” for “GRK2/βARK1[39].”\n(§4) Cells were stimulated with the TP agonist U46619 (1 μM) and changes in [Ca^2+]i mobilization were monitored as a function of time. To assess agonist-mediated homologous desensitization, cells (0.825 × 10^6 cells/ml; 2 ml per assay) were stimulated with 1 μM U46619 (Primary stimulation) or, as a control, with the vehicle for 4 min; thereafter, cells were collected by centrifugation (900×g, 5 min); were washed twice in 2 ml HBSSHB, 1 mM CaCl2; and finally resuspended in 2 ml HBSSHB,1 mM CaCl2 and were left to recover over various time intervals (ranging from 0 to 60 min); thereafter, cells re-stimulated with 1 μM U46619 (Secondary stimulation) and changes in [Ca^2+]i mobilization were monitored as a function of time. […]"}, "[3]": {"target": "T3, TPα^S331,T337A (Homo sapiens, UniProt P21731, S331A/T337A)", "T3 construct": "expressed in transfected cells", "T3 sequence (P21731 1-343 S331A/T337A)": "T1 sequence (P21731 1-343 S329A) with A329S, S331A, T337A", "assay": "Intracellular calcium mobilization, HEK.TPα^S331,T337A cells", "type": "cell-based", "details": "for Δ[Ca2+]i, U46619-induced: HEK.TPα^S331,T337A", "protocol": "as §1, with “GRK2/βARK1[39]. Approximately 48 h post-transfection, cells were harvested by scraping, washed twice in ice-cold PBS and resuspended in HBSSHB (modified Ca^2+/Mg^2+-free Hank's buffered salt solution, containing […], pH 7.67, 0.1% bovine serum albumin (BSA)) buffer at 10^7 cells/ml and incubated in the dark with 5 μM FURA2/AM for 45 min at 37 °C.” for “GRK2/βARK1[39].”\nas §4"}, "[4]": {"tested_on": "TPα^S145,S331,T337A", "assay": "Intracellular calcium mobilization, HEK.TPα^S145,S331,T337A cells", "type": "cell-based, human", "details": "data not shown", "protocol": "as §1, §2, §3"}, "[5]": {"details": "secondary 1 μM U46619 at 15 min"}}, "note": "Substitutions are numbered along the chain they refer to.", "data": [{"smiles": "CCCCC[C@H](O)/C=C/[C@@H]1[C@@H](C/C=C\\CCCC(=O)O)[C@H]2CO[C@@H]1C2", "note": "[U46619]", "values": [{"measurement": "Δ[Ca2+]i, U46619-induced", "setting": "[1]; primary 1 μM U46619 4 min", "value": "228 ± 7.7", "unit": "nM"}, {"measurement": "Δ[Ca2+]i, U46619-induced", "setting": "[1]; [5]", "value": 0, "unit": "nM"}, {"measurement": "Δ[Ca2+]i, U46619-induced", "setting": "[2]; primary 1 μM U46619 4 min", "value": "200 ± 9.2", "unit": "nM"}, {"measurement": "Δ[Ca2+]i, U46619-induced", "setting": "[2]; [5]", "value": "49 ± 5", "unit": "nM"}, {"measurement": "secondary U46619 [Ca2+]i response relative to primary response", "setting": "[2]; TPα^T337A", "value": 25, "unit": "%"}, {"measurement": "Δ[Ca2+]i, U46619-induced", "setting": "[3]; primary 1 μM U46619 4 min", "value": "181 ± 6.5", "unit": "nM"}, {"measurement": "Δ[Ca2+]i, U46619-induced", "setting": "[3]; [5]", "value": "60 ± 7.1", "unit": "nM"}, {"measurement": "secondary U46619 [Ca2+]i response relative to primary response", "setting": "[3]; TPα^S331,T337A", "value": 33, "unit": "%"}, {"measurement": "secondary U46619 [Ca2+]i response relative to primary response", "setting": "[4]", "value": 55, "unit": "%"}]}]}
